pIC50: −log10 of the molar value. Where two headings read alike, the source gives them in different places. Where a SMILES comes first, the peptide text is derived from it.
How the values were obtained:
[1] = tested on: SARS-CoV-2 S pseudotyped VSV viral particles
[2] = tested on: SARS-CoV-2 S pseudotyped VSV viral particles; remark: listed apart in the source
[3] = tested on: SARS-CoV-2 Spike-mediated cell-cell fusion
[4] = tested on: SARS-CoV-2 S pseudotyped VSV viral particles; remark: listed apart in the source
SARS-CoV-2 = details: for reduction in SARS-CoV-2 plaques formation: 10 μM peptide, Vero E6 cells
[5] = S pseudotyped VSV viral particles

Row | Compound | inhibition against the infection through the endocytosis pathway in VeroE6 cells [1] [%] | pIC50 [1, 5] | pIC50 [2] | pIC50 [3] | inhibition of TMPRSS2-dependent pseudovirus infection through plasma membrane [4] | pIC50 [4, 5] | reduction in SARS-CoV-2 plaques formation (SARS-CoV-2) | pIC50 (SARS-CoV-2)
1 | CC[C@H](C)[C@H](NC(=O)CNC(=O)[C@H](CO)NC(=O)[C@@H](NC(=O)[C@H](CC(=O)O)NC(=O)CNC(=O)[C@H](CC(C)C)NC(=O)[C@@H](NC(=O)[C@@H](N)Cc1c[nH]cn1)C(C)C)[C@@H](C)CC)C(=O)N[C@@H](CC(N)=O)C(=O)N[C@@H](C)C(=O)N[C@@H](CO)C(=O)N[C@H](C(=O)N[C@H](C(=O)N[C@@H](CCC(N)=O)C(=O)N[C@H](C(=O)N[C@@H](CCC(N)=O)C(=O)N[C@@H](CCCCN)C(=O)N[C@@H](CCC(=O)O)C(=O)N[C@H](C(=O)N[C@@H](CC(=O)O)C(=O)N[C@@H](CCCNC(=N)N)C(=O)N[C@@H](CC(C)C)C(=O)N[C@@H](CC(N)=O)C(=O)N[C@@H](CCC(=O)O)C(=O)N[C@H](C(=O)N[C@@H](C)C(=O)N[C@@H](CCCCN)C(=O)N[C@@H](CC(N)=O)C(=O)N[C@@H](CC(C)C)C(=O)N[C@@H](Cc1c[nH]cn1)C(=O)N[C@@H](CCC(=O)O)C(=O)N[C@@H](CO)C(=O)N[C@@H](CC(C)C)C(=O)N[C@H](C(=O)N[C@@H](Cc1ccc(O)cc1)C(=O)N[C@@H](CC(C)C)C(=O)N[C@@H](CCC(N)=O)C(=O)N[C@@H](CCC(=O)O)C(=O)O)[C@@H](C)CC)C(C)C)[C@@H](C)CC)[C@@H](C)CC)C(C)C)C(C)C [#121] | ≤ 38 | < 5.00 | 6.80 | 6.14 | strong inhibition | > 6.00 | approximately 15% | –
2 | CC[C@H](C)[C@H](NC(=O)CNC(=O)[C@H](CCCNC(=N)N)NC(=O)[C@@H](NC(=O)[C@H](CCC(N)=O)NC(=O)[C@H](CCCNC(=N)N)NC(=O)[C@H](CC(C)C)NC(=O)[C@H](CCCNC(=N)N)NC(=O)[C@@H](N)Cc1c[nH]cn1)[C@@H](C)CC)C(=O)N[C@@H](CCCNC(=N)N)C(=O)N[C@@H](C)C(=O)N[C@@H](CCCNC(=N)N)C(=O)N[C@H](C(=O)N[C@H](C(=O)N[C@@H](CCC(N)=O)C(=O)N[C@H](C(=O)N[C@@H](CCC(N)=O)C(=O)N[C@@H](CCCCN)C(=O)N[C@@H](CCC(=O)O)C(=O)N[C@H](C(=O)N[C@@H](Cc1c[nH]c2ccccc12)C(=O)N[C@@H](CCCNC(=N)N)C(=O)N[C@@H](CC(C)C)C(=O)N[C@@H](CC(N)=O)C(=O)N[C@@H](CCC(=O)O)C(=O)N[C@H](C(=O)N[C@@H](C)C(=O)N[C@@H](CCCCN)C(=O)N[C@@H](CC(C)C)C(=O)N[C@@H](CC(C)C)C(=O)N[C@@H](CC(N)=O)C(=O)N[C@@H](CCC(=O)O)C(=O)N[C@@H](CO)C(=O)N[C@@H](CC(C)C)C(=O)N[C@H](C(=O)N[C@@H](Cc1ccc(O)cc1)C(=O)N[C@@H](CC(C)C)C(=O)N[C@@H](CCC(N)=O)C(=O)N[C@@H](CCC(=O)O)C(=O)O)[C@@H](C)CC)C(C)C)[C@@H](C)CC)[C@@H](C)CC)C(C)C)C(C)C [#125] (H-HRLRQIRGIRARVVQIQKEIWRLNEVAKLLNESLIYLQE-OH) | – | – | – | 5.36 | – | – | 75% | 6.34
